Melting point data for 60 compounds are collected here from a melting point compilation (Tetko et al.; mined from patent text by program, amines drawn as free bases though some values may be those of a salt).

Each structure is given as a SMILES string. Some results are limits rather than exact numbers.

On to `O=C(Nc1c(C(O)(C(F)(F)F)C(F)(F)F)ccc2ccccc12)c1ccco1`, for which the melting point (usually the temperature, or range, at which the solid turns liquid) is 228 to 229 °C.
The figure for `Fc1cccc2c(Nc3ccncc3)noc12` is 234 to 236 °C; for `CCOc1cc(N(Cc2cccnc2)c2ccc(C(=O)O)cc2)ccc1OC(F)F` it is 178 to 179 °C.
The figure for `CONC(=O)Nc1ccc(-c2sc3c(c2CN(C)C(C)c2ccccc2)c(=O)n(-c2ccccn2)c(=O)n3Cc2c(F)cccc2F)cc1` (stereo not given) is 168 to 170 °C; for `CCOc1cccc(SCC(=O)O)c1CC(=O)O` it is 147 to 150 °C; for `CCOCc1nc2c(N)nc(C)c(C)c2n1CCNS(C)(=O)=O` it is 185 to 187 °C.
As for `CC(=O)Nc1nc2c(Oc3cc(-c4ccc(C(F)(F)F)cc4OS(=O)(=O)C(F)(F)F)ncn3)cccc2s1`, the melting point was in the range of 209 to 212 °C.
With `O=C1c2ccccc2S(=O)(=O)N1CS(=O)(=O)c1c(Cl)cccc1Cl` the figure was 201 to 203 °C.
With `CCCOC(=O)N1CCN(C(=O)c2cc(S(=O)(=O)N(C)C)ccc2N)CC1` the figure was 174 to 176 °C; with `COc1cccc(-n2c(-c3cc(-c4ccc(S(C)(=O)=O)cc4)c(N4CCOCC4)s3)nc3ccccc3c2=O)c1`, 203 to 205 °C.
The figure for `CC1=C(c2ccccc2)C(=O)N(C(C)(C)C(=O)Cc2cc(F)cc(F)c2)CO1` is 76.5 to 77.5 °C; for `CCC(=O)NC1=NN(c2ccccc2)C(C)C1` (stereo not given) it is 96 to 96.5 °C; for `CCCCNC(=O)NS(=O)(=O)c1cc(I)ccc1C(=O)OC` it is 128 to 130 °C.
For the compound `Cc1ncc([N+](=O)[O-])n1-c1nccc2[nH]c(=O)ccc12`, the melting point is more than 300 °C.
With `COc1cc2c(cc1Cl)CC(=O)NN=C2c1ccc([N+](=O)[O-])cc1` the figure was 258 to 262 °C; with `O=C1c2ccccc2C(=O)N1CCc1cn(C2OCC(O)C(O)C2O)c(=O)[nH]c1=O` (stereo not given), 137 °C.
The figure for `Cc1ccc2c(c1)C=Cc1cc(C)ccc1C2c1cn(Cc2nc(C(=O)O)co2)c(=O)[nH]c1=S` is 273 °C.
The figure for `CCOC(=O)C(=NO)c1c[nH]c2c(CC)cccc12` is 167 to 169 °C; for `NS(=O)(=O)c1cccc(NC(=O)c2cnn3c(C(F)F)cc(-c4ccc(C(F)(F)F)c(Cl)c4)nc23)c1` it is 272 °C.
`Cc1cc(N2CCN(C(=O)NCCCCC3CCSS3)CC2)ccc1N=C(N)c1cccs1` (stereo not given): the melting point was 169 to 171 °C.
With `O=C(Nc1cccc(-c2ccnc3c(C(=O)c4cccs4)cnn23)c1)c1ccccc1F` the figure was 190 to 191 °C.
With `CCC(CC)NC1=NS(=O)(=O)c2ccc(Cl)cc2N1` the figure was 224 to 226 °C.
With `CC1(c2ccccc2)OC(=O)C(=O)CC1=O` (stereo not given) the figure was 142 to 144 °C; with `CC(=O)OC1CSC(Oc2cccnc2[N+](=O)[O-])C(OC(C)=O)C1OC(C)=O` (stereo not given), 178 °C; with `CC(C)(C)OC(=O)NCCNC(=O)c1n[nH]cc1-c1cccc(F)c1`, 175 to 176 °C.
As for `CC1(COC(=O)c2ccccc2)COC(CBr)(c2ccc(Cl)cc2Cl)OC1` (stereo not given), the melting point was in the range of 139 to 142 °C.
In turn, `CNc1cc(-c2ccc(Cl)cc2)nn1C` gave a melting point of 112 °C.
With `CC(C)CCCC(C)C1CCC2C3CC=C4CC(OC(=O)NCC(=O)N(CCCl)CCCl)CCC4(C)C3CCC12C` (stereo not given), the melting point is 98 to 100 °C.
With `Cc1ncc(CCCN2C(=O)c3ccccc3C2=O)s1` the figure was 75 °C; with `Cc1nc2cccc(OC3CCN(C(=O)C(C)C)CC3)c2c(N)c1C(=O)O`, 184 to 186 °C; with `NC(=O)N(O)Cc1sccc1Sc1ccc(Br)cc1`, 124 to 126 °C.
Compound `COc1ccc2c3c(c(=O)oc2c1)CN(Cc1ccnc2ccccc12)CC3` registered a melting point of 186 to 188 °C.
The compound `CCOP(=O)(OCC)C(C)CNC(=O)CCl` (stereo not given) gave a melting point of 93 to 95 °C.
For the compound `O=Cc1cn(-c2ccccc2)nc1OCc1ccccc1`, the melting point lay within 153 to 154 °C.
The figure for `COC(=O)c1ccc(Cn2ncc3ccc(NC(=O)CC4CCCC4)cc32)c(OC)c1` is 195 to 198 °C; for `CCCCCCCCCC(O)Cc1ccc(O)c(O)c1` (stereo not given) it is 56 to 58 °C.
With `C#CCOc1nc(-n2ncc(C(=O)OCC)c2N)c(C(F)(F)F)cc1Cl` the figure was 118 to 119 °C; with `COc1cc2c(Nc3ccc(Cl)cc3F)ncnc2cc1OCCN1CCNC1=O`, more than 250 °C; with `CCOC(=O)Nc1nc(C)c(-c2nc3ccccc3c(=O)n2-c2cccc(Cl)c2)s1`, 262 to 263 °C.
The figure for `C(#Cc1cccc2ccccc12)c1ccccc1` is 51 to 53 °C.
`Cn1nnnc1SCCCC(=O)c1ccccn1` came in with a melting point of 73 to 75 °C.
With `CCCCCCCCCCCCCCCCCCOc1cc(OCCCCCCc2cccc(O)c2O)cc(C(=O)O)c1` the figure was 92 to 94 °C; with `Cc1cc(C)cc(NC(=O)Cc2ccc(OC3(C(=O)O)CCCC3C)cc2)c1` (stereo not given), 184 to 186 °C; with `O=C(Nc1ccc(F)cc1)c1ccccc1C(c1ccc(O)cc1)c1ccc(O)cc1`, 122 to 124 °C.
With `CCCc1cc(N2CCN(c3ccncc3)CC2)ccc1OCCCC(=O)O` the figure was 207 to 209 °C; with `Nc1ncc2ncn([C@@H]3C[C@H](O)[C@@H](O)[C@H]3O)c2n1` (racemic), 153 to 155 °C.
The figure for `CCOC(=O)c1ccc(C(=O)c2ccc(OC)cc2)cc1` is 74 to 81 °C.
Take `CC(C)N(C(=O)CN1C(=O)CC(=O)N(c2ccccc2)c2ccccc21)c1ccccc1`: the melting point lay within 199 to 200 °C.
With `CCOc1cc(C(=O)CCCC2CCCCC2)c(OC)cc1C` the figure was 37 to 38 °C; with `CCn1nc2oc(CO)c(C)c2c1C`, 124 to 126 °C; with `COc1cc(C2c3cc4c(cc3C(NC3=CC(=O)N(C)C3=O)C3COC(=O)C23)OCO4)cc(OC)c1O` (stereo not given), 238 to 241 °C.
With `COc1ccc(C(C#N)C(=O)Cc2ccccc2)cc1` (stereo not given) the figure was 115 to 116 °C; with `O=C(CCCc1cccnc1)N1CCC(CC(c2ccccc2)c2ccccc2)CC1`, 98 to 100 °C.
With `CC(C)(C)OC(=O)NOCC(=O)NNC(=O)c1cc(S(=O)(=O)O)cc(OCc2ccccc2)c1OCc1ccccc1` the figure was 103 to 105 °C; with `CCOc1cc(-c2c(C(=O)OC)c(C(=O)OC)c(O)c3cc(OC)c(OC)c(OC)c23)ccc1OC`, 158 °C; with `CC1(C)OC(c2ccc(S(C)(=O)=O)cc2)=C(c2ccc(S(C)(=O)=O)cc2)C1=O`, 245 to 257 °C.
With `COc1ccc(C(=O)Cc2ccc(Br)cc2)cc1`, the melting point is 142 °C.
With `CONC(=O)Nc1ccc(-c2sc3c(c2CN(C)C(C)c2ccccc2)c(=O)n(-c2ccc(F)cn2)c(=O)n3Cc2c(F)cccc2F)cc1` (stereo not given) the figure was 128 to 130 °C; with `Fc1ccc(C2(Cn3ncnc3S)OC2c2ccccc2Cl)cc1` (stereo not given), 179 to 180 °C.
`Cc1c(Cl)c(Oc2ncc(C(F)(F)F)cc2Cl)nn1C(=O)NCCCl`: the melting point is 112 to 114 °C.
